Results published in paper PMC9229843, “Cancer-Related Somatic Mutations in Transmembrane Helices Alter Adenosine A1 Receptor Pharmacology” (Molecules, 2022).
Numbering of substitutions follows the chain as printed.

Assays:
[1] = target: T1, hA1AR W188C^5.46 (Homo sapiens, UniProt P30542, W188C); details: [35S]GTPγS; CPA at EC80; ratio over basal activity of wild type or mutant hA1AR
T1 sequence (P30542 1-326 W188C): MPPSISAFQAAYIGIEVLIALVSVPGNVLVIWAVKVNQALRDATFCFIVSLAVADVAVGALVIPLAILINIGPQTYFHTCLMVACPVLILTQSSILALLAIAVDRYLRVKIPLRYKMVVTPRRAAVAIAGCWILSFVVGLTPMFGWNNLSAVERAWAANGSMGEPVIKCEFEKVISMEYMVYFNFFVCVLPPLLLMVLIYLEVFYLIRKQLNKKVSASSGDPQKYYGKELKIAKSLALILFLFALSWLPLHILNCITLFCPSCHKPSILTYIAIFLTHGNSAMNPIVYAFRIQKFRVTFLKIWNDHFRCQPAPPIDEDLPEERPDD
Experimental: (§1) Transient transfection of CHO cells with wild type or mutated hA1AR plasmid constructs was performed using a polyethylenimine (PEI) method. Cells were seeded in 10-cm culture dishes to achieve 50–60% confluency 24 h prior to transfection. On the day of transfection, cells were transfected with a PEI: DNA ratio of 3:1 and a plasmid DNA amount of 10 μg/dish. Moreover, 24 h post-transfection, the medium was refreshed, and 48 h after transfection, cells were collected and membranes were prepared as previously described. Membranes were aliquoted in 250 or 100 μL and stored at −80 °C. Membrane protein concentrations were determined using the BCA method.
(§2) [^35S]GTPγS binding assays were adapted from a previously published method. […] Then, 20 µL of [^35S]GTPγS (final concentration of 0.3 nM) was added to each well, followed by 90 min of incubation at 25 °C. Incubations were terminated and filter-bound radioactivity was measured as described above.
(§3) All experimental data were analyzed by GraphPad Prism 7.0 or 8.0 (GraphPad Software Inc., San Diego, CA, USA). Data from yeast liquid growth and [^35S]GTPγS binding assays were analyzed by non-linear regression using “log (agonist) vs. response (three parameters)” or “log (inhibitor) vs. response (three parameters)” to obtain potency (EC50), inhibitory potency (IC50), and efficacy (Emax or Imax) values. The radioligand displacement curves were obtained from a statistically preferred one-site or two-site binding model. pKi values were calculated from pIC50 values using the Cheng–Prusoff equation, where KD values were obtained from the homologous competition assays from this study and calculated by non-linear regression using “one site–homologous” [62].

[2] = target: T2, wild type hA1AR (Homo sapiens, UniProt P30542); details: [35S]GTPγS; CPA at EC80; ratio over basal activity of wild type or mutant hA1AR
T2 sequence (P30542 1-326): T1 sequence (P30542 1-326 W188C) with C188W
Experimental: as §1, §2, §3

[3] = target: T3, hA1AR H78L^3.23 (Homo sapiens, UniProt P30542, H78L); details: [35S]GTPγS; CPA at EC80; ratio over basal activity of wild type or mutant hA1AR
T3 sequence (P30542 1-326 H78L): T1 sequence (P30542 1-326 W188C) with H78L, C188W
Experimental: as §1, §2, §3

[4] = target: T4, hA1AR S246T^6.47 (Homo sapiens, UniProt P30542, S246T); details: [35S]GTPγS; CPA at EC80; ratio over basal activity of wild type or mutant hA1AR
T4 sequence (P30542 1-326 S246T): T1 sequence (P30542 1-326 W188C) with C188W, S246T
Experimental: as §1, §2, §3

[5] = target: T5, hA1AR G279S^7.44 (Homo sapiens, UniProt P30542, G279S); details: [35S]GTPγS; CPA at EC80; ratio over basal activity of wild type or mutant hA1AR
T5 sequence (P30542 1-326 G279S): T1 sequence (P30542 1-326 W188C) with C188W, G279S
Experimental: as §1, §2, §3

[6] = target: T6, hA1AR L134F^4.52 (Homo sapiens, UniProt P30542, L134F); details: [35S]GTPγS; CPA at EC80; ratio over basal activity of wild type or mutant hA1AR
T6 sequence (P30542 1-326 L134F): T1 sequence (P30542 1-326 W188C) with L134F, C188W
Experimental: as §1, §2, §3

[7] = target: T3, hA1AR H78L^3.23; assay: yeast liquid growth assay; type: cell-based; details: result in words
Experimental: The plasmids, pDT-PGK_hA1AR, containing either wild type or mutated hA1AR were transformed into a MMY24 S. cerevisiae strain following the lithium acetate procedure.
In order to characterize the mutant hA1ARs, liquid growth assays in 96-well plates were performed to obtain concentration–growth curves as previously described. […] The overnight cultures were then diluted to 40,000 cells/mL (OD600 ≈ 0.02) in a selective medium without uracil, leucine, and histidine (YNB-ULH). For the determination of constitutive activity, 50 μL of yeast cells and 150 μL of YNB-ULH medium containing different concentrations of 3-AT and 0.8 IU/mL ADA were then added to each well. To obtain concentration–growth curves, 2 μL of various concentrations of ligands, 50 μL of yeast cells, and 150 μL of YNB-ULH medium containing 7 mM 3-AT and 0.8 IU/mL ADA were then added to each well. After incubation at 30 °C for 35 h in a Genios plate reader (TECAN, Zürich, Switzerland) with shaking for 1 min at 300 rpm every 10 min, the optical density was measured at a wavelength of 595 nm, which represented the level of yeast cell growth.
as §3

## CCCn1c(=O)c2[nH]c(C3CCCC3)nc2n(CCC)c1=O [DPCPX, 8-cyclopentyl-1,3-dipropylxanthine]
[1]
  Imax: 0.74 ± 0.03
[2]
  Imax: 0.67 ± 0.05
[3]
  Imax: 0.83 ± 0.03
[4]
  Imax: 0.70 ± 0.05
[5]
  Imax: 0.65 ± 0.08
[6]
  Imax: 0.68 ± 0.01
[7]
  reduction of constitutive activity by inverse agonist: not reduced
